# Experimental data as given in patent US20250304535A1, “KAT6 Inhibitors” (BeiGene Switzerland GmbH, priority 2024, published 2025).
# What was measured:
# [1] = system: histone H3K23 acetylation in U-2 OS cells; assay: Histone H3 lysine 23 acetylation assay in U-2 OS cells (high content analysis); format: cell-based; details: Homo sapiens, U2OS, 24 hrs exposure, H3K23ac level
# Method: Assay B: Histone H3 lysine 23 Acetylation Assay
# Compounds were tested for their capacity to suppress the histone H3K23 acetylation in the following high content analysis assay.
# The cell line U-2 OS (ATCC HTB-96) was seeded at a density of 2000 cells per well in black 384 well cell culture/imaging microplates in 45 μl McCoy's 5A medium with […]. After overnight incubation in 37° C., 5% CO2 incubator, cells were then treated with a 9-point dilution series of compounds and a blank control group with medium containing 0.1% DMSO.
# Following a 24 hrs exposure to the compounds, the cells were fixed with 4% immunohistochemical fixative for 20 mins at room temperature, washed with DPBS with 2% fetal bovine serum, and permed with Perm Buffer III for 30 min on ice, washed with DPBS with 2% fetal bovine serum. Then the cells were blocked with Odyssey blocking buffer containing 0.1% Tween 20. 20 ul Anti-Histone H3 (acetyl K23) antibody (Abcam, ab177275) in odyssey blocking buffer containing 0.1% Tween20 was added and incubated overnight at 4° C. After incubation, the cells were washed for 3 times and a secondary antibody Anti-rabbit IgG (H+L), F(ab′)2 Fragment (Alexa Fluor® 647 Conjugate) (CST, 4414S) were added into cells for one hour. The cells were washed and 1 ug/ml DAPI (Thermo, 62248) were added for 10 min. Then cells were washed and read on the PerkinElmer Operetta CLS high content analysis system. The nuclei were identified by DAPI and H3K23ac level was calculated from the Alexa Fluor 647 intensity in the nuclei. Inhibition rate of H3K23ac was calculated as the mean intensity of cells per well relative to blank controls on the same plate.
# [2] = molecular target: Recombinant human KAT6B protein (657-1069) (Homo sapiens (Human), UniProt Q8WYB5); assay: KAT6B biochemical TR-FRET assay; details: histone H4 peptide 1000 nM, AcCoA 100 nM, enzyme 5 nM
# Recombinant human KAT6B protein (657-1069), sequence (Q8WYB5 657-1069): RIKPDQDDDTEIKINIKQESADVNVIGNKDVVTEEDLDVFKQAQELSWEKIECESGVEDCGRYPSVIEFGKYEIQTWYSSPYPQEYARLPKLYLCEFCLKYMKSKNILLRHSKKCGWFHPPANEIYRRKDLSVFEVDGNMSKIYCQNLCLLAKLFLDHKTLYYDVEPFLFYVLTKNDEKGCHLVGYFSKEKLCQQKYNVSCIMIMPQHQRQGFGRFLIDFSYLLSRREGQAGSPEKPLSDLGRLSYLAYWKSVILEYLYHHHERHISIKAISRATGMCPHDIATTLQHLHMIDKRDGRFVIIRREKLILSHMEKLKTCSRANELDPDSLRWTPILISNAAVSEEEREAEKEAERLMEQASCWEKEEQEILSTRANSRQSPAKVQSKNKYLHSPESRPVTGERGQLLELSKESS
# Method: Enzymatic reactions of KAT6A and KAT6B were performed using Fluorescence Resonance Energy Transfer (TR-FRET) assay, which measures acetylation of a synthetic, biotinylated histone-H4 peptide by the KAT6A and KAT6B enzymes. Recombinant human KAT6A protein (497-780) were expressed in BL21 cell using an E. coli expression system. Recombinant human KAT6B protein (657-1069) was expressed in sf9 cell using a baculovirus expression system. Histone H4 peptide (SEQ ID NO: 1—[…]-GGK-Biotin), which was used as substrate, was synthesized by GL Biochem, Shanghai, China. Acetyl coenzyme A was purchased from Sigma-Aldrich (#A-2056).
# (§1) Testing for the inhibition activities of various compounds disclosed herein was carried out at room temperature in assay buffer containing 100 mM Tris/HCl Ph7.8, 15 mM NaCl, 0.01% chicken egg white albumin, 1 mM DTT and 0.01% Tween-20. Compounds in DMSO were dispensed into wells of a black, 384-well plate (Corning 4514) using ECHO555 (Beckman). The final concentration ranges of the test compounds were 0.0625-1,000 nM, 0.625-10,000 nM, or 0.313-5,000 nM. Five μL of KAT6A or KAT6B enzyme solution were added to wells, and the plate was incubated for 1 hour at room temperature (rt). After incubation for 1 hour at rt, 5 μL H4 and AcCoA substrate solutions were added to the wells to initiate reaction, and the plate was incubated. After 2 hours reaction, 5 μL detection reagent were added to the wells, and the plate was incubated for 2 hours. After two hours incubation, detection reagent containing 5 nM Anti-histone H4 antibody (ABCAM #ab177790), 100 μM formic acid (sigma #06473-100ML), 0.1 test/μL streptavidin-XL665 (PerkinElmer #610SAXLG), 0.05 test/μL PAb anti-rabbit IgG-Eu (PerkinElmer μ61PARKLA) was added to the wells. TR-FRET was measured on a microplate reader (PHERAstar FSX, BMG labtech). The IC50s were calculated based on inhibition of enzyme activity in the presence of increasing concentrations of test compounds, and the results are shown in Table 6. In Table 6, I≤5 nM, 5 nM<II≤50 nM.
# [3] = molecular target: Recombinant human KAT6A protein (497-780) (Homo sapiens (Human), UniProt Q92794); assay: KAT6A biochemical TR-FRET assay; details: histone H4 peptide 2000 nM, AcCoA 300 nM, enzyme 5 nM
# Recombinant human KAT6A protein (497-780), sequence (Q92794 497-780): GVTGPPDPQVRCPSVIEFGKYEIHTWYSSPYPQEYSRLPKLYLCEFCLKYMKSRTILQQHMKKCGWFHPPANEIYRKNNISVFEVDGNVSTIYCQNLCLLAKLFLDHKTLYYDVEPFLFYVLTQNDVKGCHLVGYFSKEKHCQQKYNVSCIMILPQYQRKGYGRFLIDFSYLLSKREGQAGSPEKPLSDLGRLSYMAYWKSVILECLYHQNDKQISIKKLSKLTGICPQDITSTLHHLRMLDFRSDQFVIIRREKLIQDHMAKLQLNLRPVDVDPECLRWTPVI
# Method: Enzymatic reactions of KAT6A and KAT6B were performed using Fluorescence Resonance Energy Transfer (TR-FRET) assay, which measures acetylation of a synthetic, biotinylated histone-H4 peptide by the KAT6A and KAT6B enzymes. Recombinant human KAT6A protein (497-780) were expressed in BL21 cell using an E. coli expression system. Recombinant human KAT6B protein (657-1069) was expressed in sf9 cell using a baculovirus expression system. […] Acetyl coenzyme A was purchased from Sigma-Aldrich (#A-2056).
# as §1, with “The IC50s were calculated based on inhibition of enzyme activity in the presence of increasing concentrations of test compounds, and the results are shown in Table 6.” left out
IC50 [1] [nM],IC50 [2] [nM],IC50 [3] [nM],Structure (SMILES)
≤ 10,≤ 5,≤ 5,"COc1ccc(C(C)(C)C)cc1S(=O)(=O)NC(=O)c1ccc(Cc2ccccn2)c(C)c1 [Example C29, N-((5-(tert-butyl)-2-methoxyphenyl)sulfonyl)-3-methyl-4-(pyridin-2-ylmethyl)benzamide]"
≤ 10,≤ 5,≤ 5,"C#Cc1cc(C(=O)NS(=O)(=O)c2cc(C(C)(C)C)ccc2OC)ccc1Cn1cccn1 [Example C15, 4-((1H-pyrazol-1-yl)methyl)-N-((5-(tert-butyl)-2-methoxyphenyl)sulfonyl)-3-ethynylbenzamide]"
≤ 10,≤ 5,≤ 5,"COc1ccc(C2COCCN2C)cc1S(=O)(=O)NC(=O)c1ccc(Cn2cccn2)c(OC)n1 (centres unmarked) [Example C73, 5-((1H-pyrazol-1-yl)methyl)-6-methoxy-N-((2-methoxy-5-(4-methylmorpholin-3-yl)phenyl)sulfonyl) picolinamide]"
≤ 10,≤ 5,≤ 5,"COc1ccc(C(C)(C)C)cc1S(=O)(=O)NC(=O)c1ccc(Cc2ccccn2)c(C)n1 [Example C35, N-((5-(tert-butyl)-2-methoxyphenyl)sulfonyl)-6-methyl-5-(pyridin-2-ylmethyl)picolinamide]"
≤ 10,≤ 5,≤ 5,"COc1ccc(C(C)(C)C)nc1S(=O)(=O)NC(=O)c1ccc(Cn2cccn2)c(Br)c1 [Example C26, 4-((1H-pyrazol-1-yl)methyl)-3-bromo-N-((6-(tert-butyl)-3-methoxypyridin-2-yl)sulfonyl)benzamide]"
≤ 10,≤ 5,≤ 5,"COc1ccc(C(C)(C)C)cc1S(=O)(=O)NC(=O)c1ccc(Cn2cccn2)c(C2CC2)c1 [Example C2, 4-((1H-pyrazol-1-yl)methyl)-N-((5-(tert-butyl)-2-methoxyphenyl)sulfonyl)-3-cyclopropylbenzamide]"
≤ 10,≤ 5,≤ 5,"COc1cc(C(=O)NS(=O)(=O)c2cc(C3(OC)CC3)ccc2OC)ccc1Cn1cccn1 [Example C28, 4-((1H-pyrazol-1-yl)methyl)-3-methoxy-N-((2-methoxy-5-(1-methoxy-cyclopropyl)phenyl)sulfonyl)benzamide]"
≤ 10,≤ 5,≤ 5,"CCOc1nc(C(=O)NS(=O)(=O)c2nc(C(C)(C)C)ccc2OC)ccc1Cn1cccn1 [Example C34, 5-((1H-pyrazol-1-yl)methyl)-N-((6-(tert-butyl)-3-methoxypyridin-2-yl)sulfonyl)-6-ethoxy-picolinamide]"
10 to 100,5 to 50,5 to 50,"COCc1cc(C(=O)NS(=O)(=O)c2cc(C(C)(C)C)ccc2OC)ccc1Cn1cccn1 [Example C12, 4-((1H-pyrazol-1-yl)methyl)-N-((5-(tert-butyl)-2-methoxyphenyl)sulfonyl)-3-(methoxymethyl)benzamide]"
≤ 10,≤ 5,≤ 5,"COc1ccc(C(C)(C)C)cc1S(=O)(=O)NC(=O)c1ccc(Cn2cccn2)c(Br)c1F [Example C11, 4-((1H-pyrazol-1-yl)methyl)-3-bromo-N-((5-(tert-butyl)-2-methoxyphenyl)sulfonyl)-2-fluorobenzamide]"
≤ 10,≤ 5,,"COc1cccc(OC)c1S(=O)(=O)NC(=O)c1ccc(Cn2cccn2)c(OC)n1 [Example C69, 5-((1H-pyrazol-1-yl)methyl)-N-((2,6-dimethoxyphenyl)sulfonyl)-6-methoxy-picolinamide]"

# Second part, the molecule before the results:
Structure (SMILES),IC50 [1] [nM],IC50 [2] [nM],IC50 [3] [nM]
"COc1cc(C(=O)NS(=O)(=O)c2c(OC)ccc3c2OC(C)(C)C3)ccc1Cn1cccn1 [Example C45, 4-((1H-pyrazol-1-yl)methyl)-3-methoxy-N-((6-methoxy-2,2-dimethyl-2,3-dihydrobenzofuran-7-yl)sulfonyl)benzamide]",≤ 10,≤ 5,≤ 5
"COc1ccc2c(c1S(=O)(=O)NC(=O)c1ccc(Cn3cccn3)c(OC)n1)OCC2 [Example C58, 5-((1H-pyrazol-1-yl)methyl)-6-methoxy-N-((6-methoxy-2,3-dihydrobenzofuran-7-yl)sulfonyl)picolinamide]",≤ 10,≤ 5,≤ 5
"C=Cc1cc(C(=O)NS(=O)(=O)c2nc(C(C)(C)C)ccc2OC)ccc1Cn1cccn1 [Example C16, 4-((1H-pyrazol-1-yl)methyl)-N-((6-(tert-butyl)-3-methoxypyridin-2-yl)sulfonyl)-3-vinylbenzamide]",≤ 10,≤ 5,≤ 5
"COc1ccc(C(C)(C)C)nc1S(=O)(=O)NC(=O)c1ccc(Cn2cccn2)c(C2CC2)n1 [Example C48, 5-((1H-pyrazol-1-yl)methyl)-N-((6-(tert-butyl)-3-methoxypyridin-2-yl)sulfonyl)-6-cyclopropylpicolinamide]",≤ 10,≤ 5,≤ 5
"COc1ccc(C(C)(C)C)cc1S(=O)(=O)NC(=O)c1ccc(Cn2cccn2)c(OC)n1 [Example C40, 5-((1H-pyrazol-1-yl)methyl)-N-((5-(tert-butyl)-2-methoxyphenyl)sulfonyl)-6-methoxypicolinamide]",≤ 10,≤ 5,≤ 5
"COc1ccc(C(C)(C)C)nc1S(=O)(=O)NC(=O)c1ccc(Cn2cccn2)c(OC(F)F)c1 [Example C30, 4-((1H-pyrazol-1-yl)methyl)-N-((6-(tert-butyl)-3-methoxypyridin-2-yl)sulfonyl)-3-(difluoromethoxy)benzamide]",≤ 10,≤ 5,≤ 5
"COc1cc(C(=O)NS(=O)(=O)c2nc(C(C)(C)C)ccc2OC)ccc1Cn1cccn1 [Example C27, 4-((1H-pyrazol-1-yl)methyl)-N-((6-(tert-butyl)-3-methoxypyridin-2-yl)sulfonyl)-3-methoxy-benzamide]",≤ 10,≤ 5,≤ 5
